Measured values taken from PubChem BioAssay AID1963986 (Molecular Pharmacology Branch, DTP, NCI, 2024).

Test system: 171881-019-R-J1-PDC tumor spheroid viability
Experiment: Anticancer human tumor 171881-019-R-J1-PDC patient-derived invasive breast carcinoma cell line growth inhibition [PI3K]
Settings: spheroids with HUVEC and MSC; for IC50: curve of first compound; for viability, T/C: stronger effect = lower value; active = viability on the fitted dose curve at most 10% of control; inactive = the rest
How it was run: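 Agents were dosed from a top concentration near clinical Cmax (otherwise 10 microM) in half-log decrements, alone or combined with PI3K inhibitors. The spheroids contain tumor cells plus endothelial (HUVEC) and MSC stroma; viability is measured.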

[1] = second compound 0.0316 µM, first compound 0.0316 µM
[2] = second compound 0.0316 µM, first compound 0.1 µM
[3] = second compound 0.0316 µM, first compound 0.316 µM
[4] = second compound 0.0316 µM, first compound 1 µM
[5] = second compound 0.0316 µM, first compound 3.16 µM
[6] = second compound 0.0316 µM, first compound 10 µM
[7] = second compound 0.1 µM, first compound 0.0316 µM
[8] = second compound 0.1 µM, first compound 0.1 µM
[9] = second compound 0.1 µM, first compound 0.316 µM
[10] = second compound 0.1 µM, first compound 1 µM
[11] = second compound 0.1 µM, first compound 3.16 µM
[12] = second compound 0.1 µM, first compound 10 µM
[13] = second compound 0.316 µM, first compound 0.0316 µM
[14] = second compound 0.316 µM, first compound 0.1 µM
[15] = second compound 0.316 µM, first compound 0.316 µM
[16] = second compound 0.316 µM, first compound 1 µM
[17] = second compound 0.316 µM, first compound 3.16 µM
[18] = second compound 0.316 µM, first compound 10 µM
[19] = second compound 1 µM, first compound 0.0316 µM
[20] = second compound 1 µM, first compound 0.1 µM
[21] = second compound 1 µM, first compound 0.316 µM
[22] = second compound 1 µM, first compound 1 µM
[23] = second compound 1 µM, first compound 3.16 µM
[24] = second compound 1 µM, first compound 10 µM
[25] = second compound 3.16 µM, first compound 0.0316 µM
[26] = second compound 3.16 µM, first compound 0.1 µM
[27] = second compound 3.16 µM, first compound 0.316 µM
[28] = second compound 3.16 µM, first compound 1 µM
[29] = second compound 3.16 µM, first compound 3.16 µM
[30] = second compound 3.16 µM, first compound 10 µM
[31] = second compound 10 µM, first compound 0.0316 µM
[32] = second compound 10 µM, first compound 0.1 µM
[33] = second compound 10 µM, first compound 0.316 µM
[34] = second compound 10 µM, first compound 1 µM
[35] = second compound 10 µM, first compound 3.16 µM
[36] = second compound 10 µM, first compound 10 µM
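Also: spheroids exposed to compound for 7 days before viability read.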
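For viability, T/C in this document: 100% = DMSO vehicle-treated spheroids.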

C#Cc1c(F)ccc2cc(O)cc(-c3ncc4c(N5CC6CCC(C5)N6)nc(OCC56CCCN5CC(F)C6)nc4c3F)c12 (stereo not given) + Cc1nc(NC(=O)N2CCCC2C(N)=O)sc1-c1ccnc(C(C)(C)C(F)(F)F)c1
250 nM: IC50 (second compound 0.0316 µM)
115 nM: IC50 (second compound 0.1 µM)
inactive: viability, T/C [1] 88.3% | viability, T/C [2] 66.7% | viability, T/C [3] 44.4% | viability, T/C [4] 32.9% | viability, T/C [5] 27.4% | viability, T/C [6] 20% | viability, T/C [7] 72.3% | viability, T/C [8] 51.2% | viability, T/C [9] 37.7% | viability, T/C [10] 26.1% | viability, T/C [11] 20.8% | viability, T/C [12] 16.4% | viability, T/C [13] 46% | viability, T/C [14] 30.1% | viability, T/C [15] 22.6% | viability, T/C [16] 15.6% | viability, T/C [17] 11.7% | viability, T/C [18] 10.2% | viability, T/C [19] 27.2% | viability, T/C [20] 19.1% | viability, T/C [21] 13% | viability, T/C [25] 11%
active: viability, T/C [22] 9.14% | viability, T/C [23] 7.33% | viability, T/C [24] 5.95% | viability, T/C [26] 7.63% | viability, T/C [27] 5.67% | viability, T/C [28] 4.44% | viability, T/C [29] 4% | viability, T/C [30] 1.21% | viability, T/C [31] 2.71% | viability, T/C [32] 3.19% | viability, T/C [33] 2.3% | viability, T/C [34] 2.05% | viability, T/C [35] 1.56% | viability, T/C [36] 0.74%
< 31.6 nM: IC50 (second compound 0.316 µM) | IC50 (second compound 1 µM) | IC50 (second compound 3.16 µM) | IC50 (second compound 10 µM)

C=CC(=O)N1CCN(c2nc(=O)n(-c3c(C)ccnc3C(C)C)c3nc(-c4c(O)cccc4F)c(F)cc23)C(C)C1 (stereo not given) + Cc1nc(NC(=O)N2CCCC2C(N)=O)sc1-c1ccnc(C(C)(C)C(F)(F)F)c1
9730 nM: IC50 (second compound 0.0316 µM)
2350 nM: IC50 (second compound 0.316 µM)
9440 nM: IC50 (second compound 0.1 µM)
active: viability, T/C [31] 3.67% | viability, T/C [32] 3.63% | viability, T/C [33] 4.33% | viability, T/C [34] 4.28% | viability, T/C [35] 4.51% | viability, T/C [36] 2.34%
< 31.6 nM: IC50 (second compound 1 µM) | IC50 (second compound 3.16 µM) | IC50 (second compound 10 µM)
inactive: viability, T/C [1] 92.6% | viability, T/C [2] 83.4% | viability, T/C [3] 98.4% | viability, T/C [4] 92% | viability, T/C [5] 79.6% | viability, T/C [6] 48.8% | viability, T/C [7] 84.1% | viability, T/C [8] 73.2% | viability, T/C [9] 86.3% | viability, T/C [10] 87.4% | viability, T/C [11] 86.9% | viability, T/C [12] 48.2% | viability, T/C [13] 55% | viability, T/C [14] 50.9% | viability, T/C [15] 56.8% | viability, T/C [16] 60.4% | viability, T/C [17] 57.9% | viability, T/C [18] 34.7% | viability, T/C [19] 29.8% | viability, T/C [20] 32.3% | viability, T/C [21] 32.1% | viability, T/C [22] 32.4% | viability, T/C [23] 33% | viability, T/C [24] 19.4% | viability, T/C [25] 14.7% | viability, T/C [26] 15.2% | viability, T/C [27] 14.5% | viability, T/C [28] 15.2% | viability, T/C [29] 16.8% | viability, T/C [30] 8.95%

CC(Cn1ccc(-c2ccc(C#N)c(Cl)c2)n1)NC(=O)c1cc(C(C)O)[nH]n1 (stereo not given) + Cc1nc(NC(=O)N2CCCC2C(N)=O)sc1-c1ccnc(C(C)(C)C(F)(F)F)c1
> 10000 nM: IC50 (second compound 0.0316 µM) | IC50 (second compound 0.1 µM)
< 31.6 nM: IC50 (second compound 1 µM) | IC50 (second compound 3.16 µM) | IC50 (second compound 10 µM)
inactive: viability, T/C [1] 101% | viability, T/C [2] 85.3% | viability, T/C [3] 87.7% | viability, T/C [4] 93.7% | viability, T/C [5] 85% | viability, T/C [6] 62.8% | viability, T/C [7] 74.8% | viability, T/C [8] 72.9% | viability, T/C [9] 81.3% | viability, T/C [10] 80% | viability, T/C [11] 75.6% | viability, T/C [12] 59.1% | viability, T/C [13] 55.5% | viability, T/C [14] 55.3% | viability, T/C [15] 50.7% | viability, T/C [16] 57.7% | viability, T/C [17] 52.5% | viability, T/C [18] 40.3% | viability, T/C [19] 34.4% | viability, T/C [20] 32.9% | viability, T/C [21] 33.4% | viability, T/C [22] 30.8% | viability, T/C [23] 30.5% | viability, T/C [24] 24.4% | viability, T/C [25] 14.5% | viability, T/C [26] 13.7% | viability, T/C [27] 15.3% | viability, T/C [28] 13.1% | viability, T/C [29] 14.2% | viability, T/C [30] 11.9%
4160 nM: IC50 (second compound 0.316 µM)
active: viability, T/C [31] 3.76% | viability, T/C [32] 3.6% | viability, T/C [33] 3.61% | viability, T/C [34] 3.9% | viability, T/C [35] 3.74% | viability, T/C [36] 3.87%

Cn1ncc(Cl)c1-c1cc(C(=O)NC(CN)Cc2cccc(F)c2)sc1Cl (stereo not given) + Cc1nc(NC(=O)N2CCCC2C(N)=O)sc1-c1ccnc(C(C)(C)C(F)(F)F)c1
90.7 nM: IC50 (second compound 0.1 µM)
32.9 nM: IC50 (second compound 0.316 µM)
inactive: viability, T/C [1] 77.8% | viability, T/C [2] 60% | viability, T/C [3] 34.2% | viability, T/C [4] 20.2% | viability, T/C [5] 11.4% | viability, T/C [7] 71.3% | viability, T/C [8] 47.4% | viability, T/C [9] 31.6% | viability, T/C [10] 17.6% | viability, T/C [11] 11.4% | viability, T/C [13] 50.1% | viability, T/C [14] 42.2% | viability, T/C [15] 28.9% | viability, T/C [16] 16.3% | viability, T/C [19] 32.2% | viability, T/C [20] 29.3% | viability, T/C [21] 19.2% | viability, T/C [22] 12.7% | viability, T/C [25] 13.7% | viability, T/C [26] 13.4% | viability, T/C [27] 11.3%
155 nM: IC50 (second compound 0.0316 µM)
< 31.6 nM: IC50 (second compound 1 µM) | IC50 (second compound 3.16 µM) | IC50 (second compound 10 µM)
active: viability, T/C [6] 4.55% | viability, T/C [12] 4.51% | viability, T/C [17] 9.51% | viability, T/C [18] 4.96% | viability, T/C [23] 8.96% | viability, T/C [24] 3.93% | viability, T/C [28] 8.81% | viability, T/C [29] 6.34% | viability, T/C [30] 1.66% | viability, T/C [31] 3.8% | viability, T/C [32] 3.93% | viability, T/C [33] 3.32% | viability, T/C [34] 2.79% | viability, T/C [35] 1.39% | viability, T/C [36] 0.18%

Cn1nccc1Nc1nccc(-c2ccn(C(CO)c3ccc(Cl)c(F)c3)c(=O)c2)n1 (stereo not given) + Cc1nc(NC(=O)N2CCCC2C(N)=O)sc1-c1ccnc(C(C)(C)C(F)(F)F)c1
297 nM: IC50 (second compound 0.0316 µM)
inactive: viability, T/C [1] 89.8% | viability, T/C [2] 73.2% | viability, T/C [3] 47.2% | viability, T/C [4] 32.1% | viability, T/C [5] 23.1% | viability, T/C [6] 18.4% | viability, T/C [7] 81% | viability, T/C [8] 55.8% | viability, T/C [9] 36.2% | viability, T/C [10] 24% | viability, T/C [11] 18.5% | viability, T/C [12] 16.2% | viability, T/C [13] 51.1% | viability, T/C [14] 37.8% | viability, T/C [15] 22.6% | viability, T/C [16] 14.6% | viability, T/C [17] 10.9% | viability, T/C [19] 27.4% | viability, T/C [20] 20% | viability, T/C [21] 12.5% | viability, T/C [25] 12.3%
active: viability, T/C [18] 8.35% | viability, T/C [22] 7.16% | viability, T/C [23] 5.6% | viability, T/C [24] 4.92% | viability, T/C [26] 8.08% | viability, T/C [27] 4.7% | viability, T/C [28] 3.17% | viability, T/C [29] 2.1% | viability, T/C [30] 1.72% | viability, T/C [31] 2.73% | viability, T/C [32] 2.2% | viability, T/C [33] 1.3% | viability, T/C [34] 0.88% | viability, T/C [35] 0.68% | viability, T/C [36] 0.53%
< 31.6 nM: IC50 (second compound 1 µM) | IC50 (second compound 3.16 µM) | IC50 (second compound 10 µM)
140 nM: IC50 (second compound 0.1 µM)
34.9 nM: IC50 (second compound 0.316 µM)
